Patent publication US20250228241A1, “P[…] COMPOUND OR SALT THEREOF, PEST CONTROL AGENT CONTAINING SAID COMPOUND AS ACTIVE INGREDIENT, AND PEST CONTROL METHOD” (NIHON NOHYAKU CO., LTD., priority 2021, published 2025)

Assays:
Format in all cases: in vivo
[1] = tested on: diamond back moth (Plutella xylostella); test: Insecticidal test against the diamond back moth (Chinese cabbage seedling with eggs, immersion); conditions: 500 ppm, seedling with eggs immersed about 30 seconds, 25° C., six days after immersion
Protocol: The adult diamond back moths were released and allowed to oviposit on a Chinese cabbage seedling. Two days after the release, the seedling having the eggs deposited thereon was immersed for about 30 seconds in a liquid chemical prepared by diluting a preparation containing the present inventive compound as an active ingredient to adjust the concentration to 500 ppm. After air dried, it was allowed to stand in a room thermostatted at 25° C. Six days after the immersion, the alive insects were counted. The corrected mortality was calculated according to the following equation and the insecticidal effect was judged according to the criterion shown below. The test was carried out with triplicate groups.
(§1) The Comparative test compound was tested in the same way, and the corrected mortality was calculated and judged.
(§2) [formula] • Criterion: A: Corrected mortality 100% • B: Corrected mortality 99%-90% • C: Corrected mortality 89%-80% • D: Corrected mortality 79%-50%

[2] = tested on: common cutworm (Spodoptera litura); test: Insecticidal test against the common cutworm (cabbage leaf dip); conditions: 500 ppm, cabbage leaf dipped about 30 seconds, second-instar larvae, 25° C., eight days after inoculation
Protocol: A piece of cabbage leaf (cultivar; Shikidori) was dipped for about 30 seconds in a chemical solution prepared by diluting a preparation containing the present inventive compound as an active ingredient to adjust the concentration to 500 ppm. After air dried, it was placed in a plastic Petri dish with a diameter of 9 cm and inoculated with second-instar larvae of common cutworm, after which the dish was closed and then allowed to stand in a room thermostatted at 25° C. Eight days after the inoculation, the number of the alive insects were counted. The corrected mortality was calculated according to the following equation and the insecticidal effect was judged according to the following criterion. The test was carried out with triplicate groups of 10 insects.
as §1, §2

[3] = tested on: green peach aphid (Myzus persicae); test: Control value test against the green peach aphid (foliar spray on Chinese cabbage); conditions: 500 ppm spray on stems and leaves of Chinese cabbage, 6th day after spray
Source text: Chinese cabbage was planted in plastic pots with a diameter of 8 cm and a height of 8 cm to breed green peach aphids, and the number of the infesting aphids in each pot was investigated. The present inventive compound was dispersed in water and diluted to a 500 ppm chemical solution, and the chemical solution was sprayed on the stems and leaves of the Chinese cabbage plants planted in the pots. After air drying, the pots were kept in a greenhouse. On the 6th day after the spray of the chemical solution, the number of the green peach aphids infesting on each Chinese cabbage plant was counted and the control value was calculated on the following equation, whereby the effect was judged according to the criterion below.
The Comparative test compound was tested in the same way, and the control value was calculated and judged.
[formula] • Ta: number of infestants before spraying in the treated group, • T: number of infestants after spraying in the treated group, • Ca: number of infestants before spraying in the untreated group, • C: number of infestants after spraying in the untreated group.
• A: Control value 100% • B: Control value 99-90% • C: Control value 89-80% • D: Control value 79-50%

[4] = tested on: smaller brown planthopper (Laodelphax striatellus); test: Insecticidal test against the smaller brown planthopper (rice seedling immersion); conditions: 500 ppm, rice seedling immersed 30 seconds, third instar nymphs, eight days after
Source text: The present inventive compound was dispersed in water to adjust the concentration to 500 ppm and a rice seedling was immersed therein for 30 seconds; after air dried, the seedling was put in a test tube, 10 third instar nymphs were inoculated and the test tube was sealed with a cotton plug. Eight days after, the alive and dead insects were counted to calculate the corrected mortality according to the following equation and the insecticidal effect was judged according to the criterion shown below.
as §1, §2

[5] = tested on: Western honeybees (Apis mellifera); test: Safety test for the Western honeybee (oral acute toxicity test)
Protocol: Seven to ten adult Western honeybees (Apis mellifera) were released in a plastic cage (8 cm×12 cm×20 cm), and after fasting for 2 hours, they were oral administered, using a 1.5 ml microtube, with a 50% sucrose solution as a test bait containing a chemical solution of a predetermined concentration. Four hours after the administration, the test bait was taken out, and the amount of the compound taken per animal was calculated from the remaining amount. At the same time, the animals were fed with a sufficient amount of 50% sucrose solution, maintained at 25° C., H55-75%, 16L8D. The numbers of dead and abnormal insects were counted after 24, 48 and 96 hours to calculate the median lethal dose (LD50 value). The untreated group was fed with a 50% sucrose solution […] and was maintained under the same conditions as the chemical-treated group.

SMILES	corrected mortality (activity class) [1]	corrected mortality (activity class) [2]	control value (activity class) [3]	corrected mortality (activity class) [4]	improvement in safety for the Western honeybee compared with the comparative compound ([5]; from oral LD50 values after 96 hours)	LD50 value for one adult honeybee ([5]; oral, after 96 hours, per adult honeybee)
C[C@H](NC(=O)c1cc(C(F)(F)F)cc(C(F)(F)F)c1)c1ncnn1-c1ncccn1 [comparative compound, (S)—N-(1-(1-(pyrimidin-2-yl)-1H-1,2,4-triazol-5-yl)ethyl)-3,5-bis(trifluoromethyl)benzamide, reference compound]	B or higher	B or higher	B or higher	B or higher		
C[C@H](NC(=O)c1cc(C(F)(F)F)cc(C(F)(F)F)c1)c1ncnn1-c1cc(C(F)(F)F)ncn1 [present inventive compound, (S)—N-(1-(1-(6-trifluoromethylpyrimidin-4-yl)-1H-1,2,4-triazol-5-yl)ethyl)-3,5-bis(trifluoromethyl)benzamide]	B or higher	B or higher	B or higher	B or higher	more than 200 times	2.04 µg
